# Columns and labels:
# [1] = system: VM46 Human Colon Cancer Cells Overexpressing Multi-drug Resistant Gene 1; experiment: Colony formation assay, VM46; assay type: cell-based; conditions: 50% inhibition of colony formation; 72 hours with drug; colonies counted after 14 days
# Description: (§1) Cancer cells were plated in 60 mm Petri dishes containing 2.7 ml of medium (modified McCoy's 5a medium containing 10% fetal bovine serum and 100 units/ml penicillin and 100 ug/ml streptomycin). The cells were incubated in a CO2 incubator at 37 degree C. for 5 hours for attachment to the bottom of Petri dishes. Drugs were made up fresh in medium at ten times the final concentration, and then 0.3 ml of this stock solution was added to the 2.7 ml of medium in the dish. The cells were then incubated with drugs for 72 hours at 37 degree C. At the end of incubation the drug-containing media were decanted, the dishes were rinsed with 4 ml of Hank's Balance Salt Solution (HBSS), 5 ml of fresh medium was added, and the dishes were returned to the incubator for colony formation. The cell colonies were counted using colony counter after incubation for 7 days (HCT116 cell line), 14 days (VM46 cell line) and 15 days (H23 cell line). Cell survival (%) was calculated from 3 repeated dishes for each drug concentration and the mean values of IC50 (the drug concentration producing 50% inhibition of colony formation) were determined for each tested compound.
# [2] = system: HCT116 Human Colon Cancer Cells; experiment: Colony formation assay, HCT116; assay type: cell-based; conditions: 50% inhibition of colony formation; 72 hours with drug; colonies counted after 7 days
# Description: as §1
# [3] = system: H23 Human Non-small Cell Lung Cancer Cells; experiment: Colony formation assay, H23; assay type: cell-based; conditions: 50% inhibition of colony formation; 72 hours with drug; colonies counted after 15 days
# Description: as §1
# [4] = Toxicity study (MTD) in normal mice; assay type: in vivo, C3H female normal mice; conditions: single i.p. injection, mice checked daily for 40 days (MTD40)
# Description: In the toxicity studies, 2 C3H female normal mice were dosed with compounds N1-4 (N1, N2, N3, and N4) at low and moderate doses of 40 and 100 mg/kg. Since no severe and irreversible toxicity occurred at these doses, a new pair of animals was initiated at 120 mg/kg which was 1.2 times higher than 100 mg/kg. Sequential dosages (ie. 2 mice for each drug dose) were increased by a factor of 1.2-1.5 until irreversible toxicity was observed (animal became emaciated; animal underwent rapid weight loss (cachexia) (20%) within several (2-4) days)(euthanasia was required) occurred. Then another pair of animals was initiated at the highest nontoxic dosage, and successive dosages were increased by a factor of 1.15. […] Six mice were dosed at each dosage. If no irreversible toxicity occurred at the lower dosage and at least one with irreversible toxicity at the higher dose, then the lower dose was considered to be the MTD. HCL salts of N1-4 were formulated in a solution of ethanol:Cremophor EL:0.2M NaAc:saline (5:5:10:80) with a final pH of 5.0-5.5. N1-4 bases were formulated in a solution of ethanol: Cremophor EL:saline (5:5:90). All compounds were administered to C3H female normal mice by a single i.p. injection at a volume of 0.5 ml/20 g mouse. Drug toxicity was evaluated on mice checked daily for 40 days. The toxicity parameters reported were the MTD40. […] At the end of experiment, all mice were euthanized.
# [5] = system: HCT116 human colon cancer xenograft; experiment: Subcutaneous HCT116 human colon cancer xenograft model; assay type: in vivo, Mus Musculus (BALB/c nude)
# Description: Each mouse was inoculated subcutaneously with 5×10^6 HCT116 tumor cells in 0.1 ml PBS for tumor development. Treatments were started when the tumor volume reached 100 mm^3. […] Body weight and tumor volume were measured twice a week.
# [6] = system: COLO205 human colon cancer xenograft; experiment: Subcutaneous COLO205 human colon cancer xenograft model; assay type: in vivo, Mus Musculus (BALB/c nude); conditions: 125 mg/kg i.p. q3d×3, day 29
# Description: Each mouse was inoculated subcutaneously with 5×10^6 COLO205 tumor cells in 0.1 ml PBS for tumor development. Treatments were started when the tumor volume reached 120 mm^3. […] Body weight and tumor volume were measured twice a week.
# Rat MTD study = assay type: in vivo, Sprague-Dawley rats
# Description: In the rat MTD study, Sprague-Dawley rats were dosed with 801 HCl at a concentration of 6 mg/ml via intravenous infusion or slow intravenous injection. The MTD of 801 in normal rats was 120 mg/kg/day. In the 7-day repeating dose study, the rats were administered with […] via BID slow IV injection for 7 days.
# [7] = system: K562 human chronic myeloid leukemia xenograft; experiment: Subcutaneous K562 human chronic myeloid leukemia xenograft model; conditions: 300 mg/kg ip Days 8, 11, 14
# [8] = Toxicity studies (MTD) in Cynomolgus monkeys; assay type: in vivo
structure (smiles),measurement,setting,value
CCc1c2c(nc3ccc(O)c(CN(C)C)c13)-c1cc3c(c(=O)n1C2)COC(=O)C3(CC)OC(=O)COc1ccc(C(=O)OC2c3cc4c(cc3C(c3cc(OC)c(OC)c(OC)c3)C3C(=O)OCC23)OCO4)cc1 (stereo not drawn) [Compound N4],IC50,[1],5 nM
same,IC50,[2],6.6 nM
same,IC50,[3],12.9 nM
same,MTD Values,[4],250 mg/kg
"CCc1c2c(nc3ccc(OC(=O)N4CCC(N5CCCCC5)CC4)cc13)-c1cc3c(c(=O)n1C2)COC(=O)[C@]3(O)CC [Irinotecan, reference compound]",body weight loss,"[5]; during the treatment period, doses of the study groups",8%
CC[C@@]1(OC(=O)COc2ccc(C(=O)O[C@H]3c4cc5c(cc4[C@@H](c4cc(OC)c(OC)c(OC)c4)[C@H]4C(=O)OC[C@@H]43)OCO5)cc2)C(=O)OCc2c1cc1n(c2=O)Cc2cc3cc(OC(=O)N4CCC(N5CCCCC5)CC4)ccc3nc2-1.Cl [Compound 801-HCl],TGI,[6],70%
same,MTD,"Rat MTD study; 6 mg/ml via intravenous infusion or slow intravenous injection, normal rats",120 mg/kg/day
same,TGI (Day 25),[7],98%
same,Mean Tumor Volume,[7]; Day 8 after tumor inoculation,159 ± 6 mm^3
same,Mean Tumor Volume,[7]; Day 11,221 ± 27 mm^3
same,Mean Tumor Volume,[7]; Day 14,164 ± 6 mm^3
same,Mean Tumor Volume,[7]; Day 18,47 ± 7 mm^3
same,Mean Tumor Volume,[7]; Day 21,39 ± 6 mm^3
same,Mean Tumor Volume,[7]; Day 25,74 ± 12 mm^3
same,Mean Tumor Volume,"[7]; Day 25, listed as 801-HCI",74 ± 2 mm^3
same,Mean Tumor Volume,[7]; Day 28,95 ± 19 mm^3
same,CR ratio (ratio of complete regression),[7]; complete remission by Day 21,3/8
same,maximum BW loss,[7]; next day after the 2nd dosing,7.7%
same,MTD for repeating dosing,"[8]; 5-day repeat dose, intravenous infusion",30 mg/kg/day
same,MTD,[8]; intravenous infusion twice daily with a 5-hour interval,60 mg/kg/day
same,TGI,"[5]; 125 mg/kg i.p. q3d×3, day 29",93%
same,MTD Values,[4],300 mg/kg
CC[C@@]1(OC(=O)COc2ccc(C(=O)O[C@H]3c4cc5c(cc4[C@@H](c4cc(OC)c(OC)c(OC)c4)[C@H]4C(=O)OC[C@@H]43)OCO5)cc2)C(=O)OCc2c1cc1n(c2=O)Cc2cc3cc(OC(=O)N4CCC(N5CCCCC5)CC4)ccc3nc2-1 [N2 (801)],IC50,[1],~520 nM
same,IC50,[2],> 500 nM
same,MTD for repeating dosing,"Rat MTD study; 7-day repeating dose, BID slow IV injection",60 mg/kg/day
same,IC50,[3],462 nM
same,MTD Values,[4],300 mg/kg
CCc1c2c(nc3ccc(OC(=O)N4CCC(N5CCCCC5)CC4)cc13)-c1cc3c(c(=O)n1C2)COC(=O)C3(CC)OC(=O)COc1ccc(C(=O)OC2c3cc4c(cc3C(c3cc(OC)c(OC)c(OC)c3)C3C(=O)OCC23)OCO4)cc1.Cl (stereo not drawn) [N3 HCL Salt],MTD Values,[4],144 mg/kg
CCc1c2c(nc3ccc(O)c(CN(C)C)c13)-c1cc3c(c(=O)n1C2)COC(=O)C3(CC)OC(=O)COc1ccc(C(=O)OC2c3cc4c(cc3C(c3cc(OC)c(OC)c(OC)c3)C3C(=O)OCC23)OCO4)cc1.Cl (stereo not drawn) [N4 HCL Salt],MTD Values,[4],180 mg/kg
CCC1(OC(=O)COc2ccc(C(=O)OC3c4cc5c(cc4C(c4cc(OC)c(OC)c(OC)c4)C4C(=O)OCC34)OCO5)cc2)C(=O)OCc2c1cc1n(c2=O)Cc2cc3c(CN(C)C)c(O)ccc3nc2-1.Cl (stereo not drawn) [N1 HCL Salt],MTD Values,[4],120 mg/kg
